Experimental data taken from patent US11116767B2, “3,5-disubstituted pyrazoles useful as checkpoint kinase 1 (Chk1) inhibitors, and their preparations and applications” (PHARMAENGINE, INC., priority 2016, dated 2021).
pIC50: −log10 of the molar value. Where two headings read alike, the source gives them in different places.

How the values were obtained:
[1] = tested on: ChK1 phosphorylation (pChK1 S296) in HT-29 colon cancer cells; assay: Western blot analysis of ChK1 phosphorylation in HT-29 cells with SN-38; type: cell-based, Human; conditions: HT-29 cells pre-incubated with Chk1 inhibitor 0.5 hours, then SN-38 (200 nM) 16 hours
[2] = biological target: T1, Chk1 (Homo sapiens, UniProt O14757); assay: biochemical; conditions: ADP-Glo; read-out: Chk1 in vitro enzyme activity (grade)
T1 construct: purchased BPS 40039
T1 sequence (O14757 1-476): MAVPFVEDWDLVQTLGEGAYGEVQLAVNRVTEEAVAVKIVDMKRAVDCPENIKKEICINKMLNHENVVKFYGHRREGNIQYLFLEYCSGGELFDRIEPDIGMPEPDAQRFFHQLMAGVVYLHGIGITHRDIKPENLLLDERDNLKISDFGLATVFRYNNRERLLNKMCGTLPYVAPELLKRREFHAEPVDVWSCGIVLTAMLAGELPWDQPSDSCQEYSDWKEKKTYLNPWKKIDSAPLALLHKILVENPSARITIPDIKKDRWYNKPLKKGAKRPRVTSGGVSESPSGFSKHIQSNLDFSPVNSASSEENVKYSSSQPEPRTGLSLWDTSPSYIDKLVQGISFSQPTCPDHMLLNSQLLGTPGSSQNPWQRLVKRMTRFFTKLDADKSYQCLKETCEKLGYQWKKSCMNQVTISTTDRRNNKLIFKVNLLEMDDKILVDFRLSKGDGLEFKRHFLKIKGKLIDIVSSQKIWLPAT

[3] = tested on: MDA-MB-231; assay: Cancer cell growth inhibition assay (CellTiter-Glo), MDA-MB-231; type: cell-based, Human; conditions: 72 hours, cellular ATP content, read-out: MDA-MB-231 anti cell proliferation activity (grade)
Description: (§1) Human cancer cell lines were purchased from American Type Culture Collection (Manassas, Va.). The trypsinized cells were diluted to required volume at densities of 44,000 cells/ml. 90 ul cell slurry was dispensed per well in 96-well flat-bottomed plates with the recommended culture medium. The cells were incubated for 24 hours at 37° C. in 5% CO2 under humidified condition. The cells were then incubated with compounds at various concentrations for 72 hours in culture medium supplemented with 0.5% (v/v) FBS. Growth inhibition was assessed by assay of cellular ATP content using CellTiter-Glo reagent to each well. Luminesce was read on Envision. The inhibition rate (%)=(Max signal compound signal)/(Max signal Min signal)×100.

[4] = tested on: HT-29 colon cancer xenograft; type: in vivo
Description: (§2) Female Balb/c nude mice at 7-8 weeks of age (Body weights between 17-18g) were purchased from Hunan SJA Laboratory Animal Co., Ltd. HT-29 cells were cultured in DMEM culture medium containing 10% fetal bovine serum and LoVo cells were cultured in RPMI 1640 culture medium containing 10% fetal bovine serum. The cells were harvested and washed with serum free culture medium. Finally, the cells were suspended at a cell density of […] in serum free culture medium for implantation. 5 million cells per animal suspended in 0.1 ml serum free culture medium and 1.1 matrigel were injected into the right flank of the animals after a one, week acclimation period. When average tumor volume reached acceptable tumor size (100-200 mm^3) and shape, the animals were randomly assigned into treatment groups.
HT-29 colon cancer cells were implanted to establish the xenograft model in Balb/c nude mice. Compound 3 and LY2606368 were dissolved in 30% SEB-β-CD (Zhiyuan Bio-technology) with 1 molar equivalents of HCl. GDC-575 was suspended in 0.5% methyl cellulose/0.1% Tween 80 in water. […]. The animals well tolerated each treatment in the HT-29 colon cancer in nude mice model.

[5] = tested on: HT-29; assay: Cancer cell growth inhibition assay (CellTiter-Glo), HT-29; type: cell-based, Human; conditions: 72 hours, cellular ATP content, read-out: HT-29 anti cell proliferation activity (grade)
Description: as §1

[6] = biological target: T2, Chk2 (Homo sapiens, UniProt O96017); assay: biochemical; conditions: ADP-Glo; read-out: Chk2 in vitro enzyme activity (grade)
T2 construct: purchased Carna 02-162
T2 sequence (O96017 whole entry): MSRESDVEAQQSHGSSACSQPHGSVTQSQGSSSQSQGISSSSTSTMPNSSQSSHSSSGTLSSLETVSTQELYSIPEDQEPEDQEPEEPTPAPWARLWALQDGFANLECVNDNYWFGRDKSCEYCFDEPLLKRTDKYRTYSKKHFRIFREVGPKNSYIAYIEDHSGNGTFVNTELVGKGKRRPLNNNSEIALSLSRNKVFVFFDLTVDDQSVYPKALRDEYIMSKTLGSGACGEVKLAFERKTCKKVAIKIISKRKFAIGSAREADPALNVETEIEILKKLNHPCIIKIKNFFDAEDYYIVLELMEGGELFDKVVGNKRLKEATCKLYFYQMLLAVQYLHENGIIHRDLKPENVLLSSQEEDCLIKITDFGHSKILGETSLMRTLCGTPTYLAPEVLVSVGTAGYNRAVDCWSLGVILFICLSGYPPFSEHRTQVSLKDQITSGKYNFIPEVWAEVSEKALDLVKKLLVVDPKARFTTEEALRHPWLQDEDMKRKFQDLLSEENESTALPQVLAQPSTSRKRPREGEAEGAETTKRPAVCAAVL

[7] = tested on: HT-29 tumor xenograft; assay: HT-29 xenograft model, alone or in combination with CPT-11; type: in vivo, Balb/c nude mice; conditions: for % T/C value: 15 mg/kg, IV
Description: as §2
In HT-29 tumor xenograft model, the animals were treated with a single compound, a ChK1 inhibitor or CPT-11, or a combination with CPT11. […] The animals well tolerated each treatment in the HT-29 colon cancer in nude mice model.

[8] = Pharmacokinetics study in rats, intravenous; type: in vivo, SD rats; conditions: rat
Description: Compounds were formulated in 30% SEB-β-CD (Zhiyuan Bio-technology) with 1 molar equivalents of HCl (pH adjusted to 3-5). Male SD rats (280-350 g) were purchased from Medical Laboratory Animal Center of Guangdong. Three rats were used for each PK study. […] At various time points after compound administration, approximately 0.2˜0.3 mL of blood was collected by cutting the end of tail into tubes containing K2-EDTA. The plasma was separated via centrifugation and stored at −80° C. A PE Sciex API-3000 LC-MS/MS system (Applied Biosystems, Inc.) was used to analyze compound concentrations in plasma.
PK studies of ChK1 inhibitors were conducted in rats after intravenous administration at 10 mg/kg. […]. […]

[9] = tested on: LoVo colon cancer xenograft; assay: LoVo colon xenograft model; type: in vivo, Balb/c nude mice; conditions: IV, twice a week
Description: as §2
Lovo colon cancer cells were implanted to establish the xenograft model in Balb/c nude mice. Compound 3 and LY2606368 were dissolved in 30% SEB-β-CD (Zhiyuan Bio-technology) with 1 molar equivalents of HCl. […]

[10] = Human liver S9 metabolic stability; type: in vitro ADME; conditions: human liver S9, 1 μM
Description: Compounds (1 μM) were incubated with human liver S9 (from BD Gentest) at final liver microsomal protein concentration of 0.5 mg/mL for 0, 5, 15, 30, 45 min at 37° C. The remaining compounds in the reaction were measured by LC-MS/MS. The half-life (T½) 0.693/K (K is the rate constant from a plot of ln [concentration] vs. incubation time).

For `N[C@@H]1CCCN(c2c(Br)cnc3[nH]cc(NC(=O)C4CC4)c23)C1` [GDC-0575, reference compound], the “inhibition of Chk1 phosphorylation (FIG. 1)” value [1] was “less potent than these compounds”, the pIC50 [2] was 8.00 to 9.00 and the pIC50 [3] was 6.30 to 7.00. For the same compound, the T/C value ([4]; 25 mg/kg, po, 3 times/week) was 50%, the “Tumor volume (X ± SD)” value ([4]; 25 mg/kg, po, 3 times/week) was 515 ± 158 mm^3 and the “Tumor weight (X ± SD)” value ([4]; 25 mg/kg, po, 3 times/week) was 349 ± 94 mg. It also gave a pIC50 [5] of 6.30 to 7.00 and a pIC50 [6] of 7.00 to 7.30.
With `COc1cccc(OCCCN)c1-c1cc(Nc2cnc(C#N)cn2)n[nH]1` [LY-2606368, reference compound] the “% T/C value” ([7]; twice a week plus CPT-11 (50 mg/kg, IV, once per week)) was 0%, the “% T/C value” ([7]; alone, twice a week) was 61% and the “effect on anti-tumor growth activity of CPT11” value ([7]; combination with CPT11) was “enhanced anti-tumor growth activity of CPT11”. For the same compound, the pIC50 ([3]; Homo sapiens, MDA-MB-231) was 7.30 to 8.00, the T/C value ([4]; 15 mg/kg, iv, 2 times/week) was 61% and the “Tumor volume (X ± SD)” value ([4]; 15 mg/kg, iv, 2 times/week) was 615 ± 10 mm^3. For the same compound, the “Tumor weight (X ± SD)” value ([4]; 15 mg/kg, iv, 2 times/week) was 390 ± 24 mg, the AUC(0-inf) ([8]; male, SD, plasma, IV, 5 mg/kg, read-out: AUC0-inf) was 637 ng·h/mL and the AUC(0-t) ([8]; male, SD, plasma, IV, 5 mg/kg, read-out: AUC0-t) was 631 ng·h/mL. It also gave a clearance ([8]; male, SD, plasma, IV, 5 mg/kg, read-out: CL (converted)) of 132 mL/min/kg, an MRT ([8]; male, SD, plasma, IV, 5 mg/kg, read-out: MRT) of 1.2 h and a half-life ([8]; male, SD, plasma, IV, 5 mg/kg, read-out: t½ (converted)) of 1.3 h. The Vd ([8]; male, SD, plasma, iv, 5 mg/kg, IV, 5 mg/kg, read-out: Vd) was 14.7 L/kg, the Vd ([8]; male, SD, plasma, iv, 5 mg/kg, IV, 5 mg/kg, read-out: Vss) was 9.7 L/kg and the tolerability in rats ([8]; in vivo, iv, 10 mg/kg) was “did not tolerated”. For the same compound, the T/C value ([9]; 15 mg/kg) was −57%, the tumor growth inhibition ([9]; LY2606368 15 mg/kg, Compound 3 10, 20, 40 mg/kg) was “significant tumor growth inhibition in a dose-dependent manner” and the pIC50 ([5]; Homo sapiens, HT-29) was 7.30 to 8.00. The half-life at 1 μM [10] was 1.47 h.
